Reference: PMC10997755, “Discovery of a small-molecule inhibitor that traps Polθ on DNA and synergizes with PARP inhibitors” (Nature Communications, 2024)
“And” between values parts separate entries of the source, which are not always exact repeats. Identical values can stand only once. “Also recorded” adds a separate entry of the source.

Columns and labels:
[1] = Colony survival, ola with or without RTX-161 (source data sheet Fig. 2 b; cell line not given); assay type: cell-based
Polβ = target: T1, Polβ (Homo sapiens, UniProt P06746); assay: Primer extension by recombinant Pols (selectivity); assay type: biochemical
T1 construct: gift: Dr. Wilson (NIEHS)

[2] = tested on: MMEJ reporter (EJ2-GFP) in U2OS cells; assay: Chromosomal MMEJ GFP assay; assay type: cell-based; settings: for % GFP/dsRED ratio, Combined mean: Combined EXP.1-3 (0 uM: 3.78889); for % GFP/dsRED ratio, mean per experiment: means of EXP.1, 2, 3 (0 uM: 4.4, 3.73333, 3.23333); for % GFP/dsRED ratio: single replicates of EXP.1-3
Procedure: U2OS cells harboring the chromosomal (EJ2-GFP cassette) MMEJ reporter were plated and treated with various concentrations of RTX-161 for 16 h. Cells were co-transfected with either pCMV–3x- NLS-I-SceI or control vector pCMV-3x-NLS using Lipofectamine 2000 (Invitrogen) along with dsRED-Mito cDNA (control for transfection efficiency). GFP^+ frequencies were measured 3 days post transfection by FACS using Facscanto (Becton Dickinson) in triplicates and corrected for transfection efficiency and background events.

Polε = assay: Primer extension by recombinant Pols (selectivity); assay type: biochemical
Brca1-WT MEFs = assay: Clonogenic assay; assay type: cell-based, mouse; settings: for pooled Average (normalized) / Normalized: MEF WT; for pooled Average (normalized): pooled average of 3 experiments; for Normalized: single experiments 1-3, 0 micro M = 100; for survival relative to 0 uM / survival relative to 0 uM, mean of the four experiments: WT; for survival relative to 0 uM: experiments 2023-04-07 and 2023-04-13; for survival relative to 0 uM, mean of the four experiments: last block without head (mean of 4)
Procedure: (§1) Cells were plated on six or twelve or twenty-four well plates. In six well plate, 1000 cells/ well of BRCA2 -/-, BRCA1 -/-, PALB2 mut and 500 cells/ well of wildtype pair was plated; In twelve well plate, 600 cells/ well of BRCA2 -/-, BRCA1 -/-, PALB2 mut and 400 cells/ well of wildtype pair was plated; In twenty-four well plate, 500 cells/ well of BRCA2 -/-, BRCA1 -/-, PALB2 mut and 300 cells/ well of wildtype pair was plated. […] The medium was replaced every 2 days until the colonies were ready for staining in 10–12 days. For staining: Medium was removed from plates, and cells were rinsed with PBS. Fixation was carried out with—Water: Ethanol: Acetic acid (5:4:1) for 30 min followed by staining of colonies with 0.5% crystal violet in Water: Ethanol (3:2) for 2 h at room temperature. The plates were rinsed with water and left for drying overnight at room temperature. Colonies were then counted and IC50 was calculated using results from 3 or more independent experiments. Response curves are shown as mean colony formation +/- S.E.M.

Brca1^CC/CC MEFs = assay: Clonogenic assay; assay type: cell-based, mouse; settings: for pooled Average (normalized) / Normalized: MEF CC; for pooled Average (normalized): pooled average of 3 experiments; for Normalized: single experiments 1-3, 0 micro M = 100; for survival relative to 0 uM / survival relative to 0 uM, mean of the four experiments: cc; for survival relative to 0 uM: 150 cells/well, experiments 2023-04-07 and 2023-04-13; for survival relative to 0 uM, mean of the four experiments: last block without head (mean of 4)
Procedure: as §1

PolθΔL = target: T2, PolθΔL (Homo sapiens, UniProt O75417, C1895G/DEL1861-1870/DEL1873-1894/DEL1918-1929/DEL2146-2157/DEL2161-2173/DEL2261-2287/DEL2291-2305/DEL2513-2514/DEL2518-2524/F2289G/F2526G/L1930G/L2158G/L2516G/M2525G/P1932S/P1933G/R2175G/R2306G/S1934G/V1931G); assay: PolθΔL primer extension; assay type: biochemical
T2 construct: The gene encoding Polθ-pol (residues 1819–2590) was cloned into a pSUMOstar vector; 6xHis (N, cleaved yes); SUMO (N); made in house; host or cells: E. coli BL21(DE3)
T2 sequence (O75417 with tags, fused parts or gaps with the stated changes): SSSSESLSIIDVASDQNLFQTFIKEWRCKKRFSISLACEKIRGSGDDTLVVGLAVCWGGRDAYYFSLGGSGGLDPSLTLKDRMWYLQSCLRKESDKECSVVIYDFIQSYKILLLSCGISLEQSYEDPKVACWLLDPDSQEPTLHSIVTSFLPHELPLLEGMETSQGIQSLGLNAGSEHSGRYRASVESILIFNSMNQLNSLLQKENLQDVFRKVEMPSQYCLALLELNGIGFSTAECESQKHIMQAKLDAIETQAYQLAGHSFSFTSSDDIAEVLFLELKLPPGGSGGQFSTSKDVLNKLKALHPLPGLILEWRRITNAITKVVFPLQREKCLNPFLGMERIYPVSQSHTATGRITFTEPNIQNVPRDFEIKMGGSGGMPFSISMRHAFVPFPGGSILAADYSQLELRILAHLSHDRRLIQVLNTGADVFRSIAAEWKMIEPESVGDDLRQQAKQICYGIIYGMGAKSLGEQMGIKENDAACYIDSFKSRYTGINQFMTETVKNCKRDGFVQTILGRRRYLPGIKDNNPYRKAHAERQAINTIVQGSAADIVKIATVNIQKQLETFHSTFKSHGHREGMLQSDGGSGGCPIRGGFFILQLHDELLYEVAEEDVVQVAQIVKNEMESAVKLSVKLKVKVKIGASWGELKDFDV

[3] = selectivity panel, Pol named in Supplementary Fig. 1h

Compound: CN(C(=O)Oc1c(N2CCN(CCO)C2=O)cc(C(F)(F)F)cc1C(F)(F)F)c1ccc(F)cc1 [RTx-161]
- percent suvival ([1]; RTX-161 2.5 micro M + ola 11.8 nano M): 48.7273%
- percent suvival ([1]; RTX-161 2.5 micro M + ola 26.60 nano M): 30.5455%
- percent suvival ([1]; RTX-161 2.5 micro M + ola 60.00 nano M): 18.9091%
- percent suvival ([1]; RTX-161 2.5 micro M, ola 0.00 nano M): 75.7576% and 82.5581% and 83.6364%
- percent suvival ([1]; RTX-161 5 micro M + ola 11.8 nano M): 22.5455%
- percent suvival ([1]; RTX-161 5 micro M + ola 26.60 nano M): 14.9091%
- percent suvival ([1]; RTX-161 5 micro M + ola 60.00 nano M): 2.545%
- percent suvival ([1]; RTX-161 5 micro M, ola 0.00 nano M): 46.9697% and 43.6047% and 70.9091%
- percent suvival ([1]; RTX-161 10 micro M + ola 11.8 nano M): 9.818%
- percent suvival ([1]; RTX-161 10 micro M + ola 26.60 nano M): 5.091%
- percent suvival ([1]; RTX-161 10 micro M + ola 60.00 nano M): 0.7273%
- percent suvival ([1]; RTX-161 10 micro M, ola 0.00 nano M): 24.2424% and 34.8837% and 47.6364%
- % Full Extension (Polβ; Pol Beta): 84.31%
- % Inhibition Compared to Control (Polβ; Pol Beta): -0.98%
- % Relative Maximum Extension (Polβ; Pol Beta): 100.98%
- inhibition of primer extension (Polβ; [3]): no inhibition
- % GFP/dsRED ratio, Combined mean ([2]; 5 uM): 3.422%
- % GFP/dsRED ratio, mean per experiment ([2]; 5 uM): 3.067% and 3.933% and 3.267%
- % GFP/dsRED ratio ([2]; 5 uM): 2.8% and 4% and 2.5% and 3.3% and 3.6% and 3.5% and 3.1% and 4.2% and 3.8%
- % GFP/dsRED ratio, Combined mean ([2]; 10 uM): 3.378%
- % GFP/dsRED ratio, mean per experiment ([2]; 10 uM): 3.067% and 3.8% and 3.267%
- % GFP/dsRED ratio ([2]; 10 uM): 2.9% and 3.3% and 2.6% and 3.2% and 3.9% and 3.4% and 3.1% and 4.2% and 3.8%
- % GFP/dsRED ratio, Combined mean ([2]; 15 uM): 2.733%
- % GFP/dsRED ratio, mean per experiment ([2]; 15 uM): 3.033% and 2.067% and 3.1%
- % GFP/dsRED ratio ([2]; 15 uM): 2.9% and 2.2% and 3.3% and 2.8% (2×) and 2.1% and 3.4% and 1.9% and 3.2%
- cellular MMEJ (GFP reporter) ([2]; 20 μM RTx-161): reduction in cellular MMEJ; also recorded: suppression of MMEJ
- % GFP/dsRED ratio, Combined mean ([2]; 20 uM): 1.611%
- % GFP/dsRED ratio, mean per experiment ([2]; 20 uM): 1.8% and 1.367% and 1.667%
- % GFP/dsRED ratio ([2]; 20 uM): 1.9% and 1.3% and 1.8% and 1.6% (2×) and 1.5% and 1.2% and 1.7%
- % Full Extension (Polε; Pol Epsilon): 91.14%
- % Inhibition Compared to Control (Polε; Pol Epsilon): -0.19%
- % Relative Maximum Extension (Polε; Pol Epsilon): 100.19%
- inhibition of primer extension (Polε; [3]): no inhibition
- pooled Average (normalized) (Brca1-WT MEFs; RTX-161 2.5 micro M): 86.6767
- Normalized (Brca1-WT MEFs; RTX-161 2.5 micro M): 94.0299 and 78.7879 and 87.2314
- pooled Average (normalized) (Brca1-WT MEFs; RTX-161 5 micro M): 84.2267
- Normalized (Brca1-WT MEFs; RTX-161 5 micro M): 88.0597 and 81.8182 and 82.8237
- pooled Average (normalized) (Brca1-WT MEFs; RTX-161 10 micro M): 87.7867
- Normalized (Brca1-WT MEFs; RTX-161 10 micro M): 100 and 72.7273 and 90.6469
- pooled Average (normalized) (Brca1-WT MEFs; RTX-161 20 micro M): 78.36
- Normalized (Brca1-WT MEFs; RTX-161 20 micro M): 65.6716 and 68.1818 and 101.237
- survival relative to 0 uM (Brca1-WT MEFs; 150 cells/well, RTx-161 1.25 uM): 95.92% and 83.78%
- survival relative to 0 uM (Brca1-WT MEFs; 150 cells/well, RTx-161 2.5 uM): 108.16% and 89.19%
- survival relative to 0 uM (Brca1-WT MEFs; 150 cells/well, RTx-161 5 uM): 104.08% and 81.08%
- survival relative to 0 uM (Brca1-WT MEFs; 150 cells/well, RTx-161 10 uM): 102.04% and 78.38%
- survival relative to 0 uM (Brca1-WT MEFs; 150 cells/well, RTx-161 20 uM): 87.76% and 86.49%
- survival relative to 0 uM (Brca1-WT MEFs; 300 cells/well, RTx-161 1.25 uM): 109.62% and 92.19%
- survival relative to 0 uM (Brca1-WT MEFs; 300 cells/well, RTx-161 2.5 uM): 88.46% and 93.75%
- survival relative to 0 uM (Brca1-WT MEFs; 300 cells/well, RTx-161 5 uM): 92.31% and 106.25%
- survival relative to 0 uM (Brca1-WT MEFs; 300 cells/well, RTx-161 10 uM): 96.15% and 100.00%
- survival relative to 0 uM (Brca1-WT MEFs; 300 cells/well, RTx-161 20 uM): 103.85% and 96.88%
- survival relative to 0 uM, mean of the four experiments (Brca1-WT MEFs; RTx-161 1.25 uM): 95.38%
- survival relative to 0 uM, mean of the four experiments (Brca1-WT MEFs; RTx-161 2.5 uM): 94.89%
- survival relative to 0 uM, mean of the four experiments (Brca1-WT MEFs; RTx-161 5 uM): 95.93%
- survival relative to 0 uM, mean of the four experiments (Brca1-WT MEFs; RTx-161 10 uM): 94.14%
- survival relative to 0 uM, mean of the four experiments (Brca1-WT MEFs; RTx-161 20 uM): 93.74%
- pooled Average (normalized) (Brca1^CC/CC MEFs; RTX-161 2.5 micro M): 50.51
- Normalized (Brca1^CC/CC MEFs; RTX-161 2.5 micro M): 61.5322 and 50 and 40
- Normalized (Brca1^CC/CC MEFs; RTX-161 5 micro M): 48.9756 and 28.3333 and 33.3333
- pooled Average (normalized) (Brca1^CC/CC MEFs; RTX-161 10 micro M): 33.4
- pooled Average (normalized) (Brca1^CC/CC MEFs; RTX-161 20 micro M): 18.83
- survival relative to 0 uM (Brca1^CC/CC MEFs; RTx-161 1.25 uM): 84.85% and 90.38%
- survival relative to 0 uM (Brca1^CC/CC MEFs; RTx-161 2.5 uM): 72.73% and 53.85%
- survival relative to 0 uM (Brca1^CC/CC MEFs; RTx-161 5 uM): 60.61% and 50.00%
- survival relative to 0 uM (Brca1^CC/CC MEFs; RTx-161 10 uM): 51.52% and 57.69%
- survival relative to 0 uM (Brca1^CC/CC MEFs; RTx-161 20 uM): 39.39% and 48.08%
- survival relative to 0 uM, mean of the four experiments (Brca1^CC/CC MEFs; RTx-161 1.25 uM): 86.23%
- survival relative to 0 uM, mean of the four experiments (Brca1^CC/CC MEFs; RTx-161 2.5 uM): 67.71%
- survival relative to 0 uM, mean of the four experiments (Brca1^CC/CC MEFs; RTx-161 5 uM): 56.39%
- survival relative to 0 uM, mean of the four experiments (Brca1^CC/CC MEFs; RTx-161 10 uM): 54.03%
- survival relative to 0 uM, mean of the four experiments (Brca1^CC/CC MEFs; RTx-161 20 uM): 47.47%
- selective killing of Brca1^cc/cc MEFs (Brca1^CC/CC MEFs; versus Brca1-WT MEFs): selective killing

Compound: CN(C(=O)Oc1ccc(C(F)(F)F)cc1C(F)(F)F)c1ccc(F)cc1 [MC160385]
- inhibition of PolθΔL primer extension (PolθΔL): inhibits
